Experimental data published in ChEMBL document CHEMBL1201862, “PubChem BioAssay data set” (2004).
Active and inactive are the calls of the source.

Columns and labels:
HeLa = experiment: HeLa cell cytotoxicity, dose response, cytotoxicity control, 24 h, cherry-picked samples (AID 504726); format: functional, cell-based; details: Homo sapiens;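 further: potency for cytotoxicity as loss of luminescence signal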
Caspase-6 = biological target: T1, Caspase-6 (Homo sapiens, UniProt P55212); experiment: human caspase-6 inhibitors, dose response, biochemical, VEID-R110 fluorescence, cherry-pick (AID 720632)
T1 sequence (P55212 whole entry): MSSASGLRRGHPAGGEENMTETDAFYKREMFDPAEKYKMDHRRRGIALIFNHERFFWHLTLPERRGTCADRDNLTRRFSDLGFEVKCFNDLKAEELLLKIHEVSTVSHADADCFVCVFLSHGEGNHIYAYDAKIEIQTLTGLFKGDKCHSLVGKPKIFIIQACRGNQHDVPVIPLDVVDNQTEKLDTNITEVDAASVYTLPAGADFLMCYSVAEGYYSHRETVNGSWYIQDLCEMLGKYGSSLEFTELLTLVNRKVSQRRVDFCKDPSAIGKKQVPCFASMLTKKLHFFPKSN

[1] = biological target: Protein kinase C theta type (Homo sapiens, UniProt Q04759); experiment: Navigating the Kinome. Panel member name: PRKCQ; format: functional
[2] = biological target: Megakaryocyte-associated tyrosine-protein kinase (Homo sapiens, UniProt P42679); format: functional;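 further: affinity measured as one member of a kinase panel (Navigating the Kinome) against MATK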
[3] = biological target: Dual specificity protein kinase CLK2 (Homo sapiens, UniProt P49760); format: functional
[4] = biological target: Tyrosine-protein kinase JAK2 (Homo sapiens, UniProt O60674); format: functional;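 further: JAK2 tested as one member of a kinase panel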
[5] = biological target: ALK tyrosine kinase receptor (Homo sapiens, UniProt Q9UM73); format: functional;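 further: ALK tested as one member of a kinase panel screen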
[6] = biological target: Tyrosine-protein kinase BTK (Homo sapiens, UniProt Q06187); format: functional
[7] = biological target: Serine/threonine-protein kinase PAK 4 (Homo sapiens, UniProt O96013); format: functional;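 further: value obtained within a kinome profiling panel in which PAK4 was one of the panel members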
[8] = biological target: Tyrosine-protein kinase ITK/TSK (Homo sapiens, UniProt Q08881); format: functional;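 further: affinity for ITK measured as one member of a broad kinase panel profiling binding across the kinome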
[9] = biological target: Non-receptor tyrosine-protein kinase TYK2 (Homo sapiens, UniProt P29597); format: functional
[10] = biological target: Glycogen synthase kinase-3 alpha (Homo sapiens, UniProt P49840); format: functional;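 further: GSK3A result taken from a broad kinome-wide kinase panel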
[11] = biological target: Dual specificity tyrosine-phosphorylation-regulated kinase 3 (Homo sapiens, UniProt O43781); format: functional;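 further: measured as one member of a broad kinase panel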
[12] = biological target: T2, Serine/threonine-protein kinase Chk1 (Homo sapiens, UniProt O14757); format: functional;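 further: measured as one member of a kinome-wide kinase profiling panel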
T2 sequence (O14757 whole entry): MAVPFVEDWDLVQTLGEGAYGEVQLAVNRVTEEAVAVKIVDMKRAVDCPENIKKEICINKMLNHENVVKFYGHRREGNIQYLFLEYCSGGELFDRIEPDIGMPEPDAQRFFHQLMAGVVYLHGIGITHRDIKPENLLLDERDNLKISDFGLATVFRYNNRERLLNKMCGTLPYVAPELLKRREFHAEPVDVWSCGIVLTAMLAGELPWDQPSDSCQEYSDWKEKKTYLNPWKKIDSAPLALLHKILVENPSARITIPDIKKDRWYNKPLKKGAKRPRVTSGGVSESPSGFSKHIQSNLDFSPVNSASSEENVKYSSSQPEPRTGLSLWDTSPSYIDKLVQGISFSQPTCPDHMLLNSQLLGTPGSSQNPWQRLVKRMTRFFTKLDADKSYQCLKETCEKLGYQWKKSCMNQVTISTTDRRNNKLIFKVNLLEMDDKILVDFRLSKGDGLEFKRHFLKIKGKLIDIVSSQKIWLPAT

[13] = biological target: Dual specificity tyrosine-phosphorylation-regulated kinase 1B (Homo sapiens, UniProt Q9Y463); experiment: Navigating the Kinome. Panel member name: DYRK1B; format: functional
[14] = biological target: T3, cAMP-dependent protein kinase catalytic subunit PRKX (Homo sapiens, UniProt P51817); format: functional
T3 sequence (P51817 whole entry): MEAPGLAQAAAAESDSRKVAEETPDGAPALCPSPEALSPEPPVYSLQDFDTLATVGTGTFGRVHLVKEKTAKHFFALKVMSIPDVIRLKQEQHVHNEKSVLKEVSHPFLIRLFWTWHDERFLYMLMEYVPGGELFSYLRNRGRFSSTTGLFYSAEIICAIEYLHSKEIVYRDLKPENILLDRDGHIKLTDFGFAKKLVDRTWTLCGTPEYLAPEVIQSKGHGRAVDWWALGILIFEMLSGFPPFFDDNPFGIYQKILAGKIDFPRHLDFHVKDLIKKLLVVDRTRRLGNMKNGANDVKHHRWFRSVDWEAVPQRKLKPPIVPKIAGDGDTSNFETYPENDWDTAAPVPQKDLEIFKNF

[15] = biological target: Maternal embryonic leucine zipper kinase (Homo sapiens, UniProt Q14680); format: functional
[16] = biological target: 3-phosphoinositide-dependent protein kinase 1 (Homo sapiens, UniProt O15530); format: functional;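 further: value comes from the Navigating the Kinome panel, PDPK1 member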
[17] = biological target: Serine/threonine-protein kinase DCLK1 (Homo sapiens, UniProt O15075); format: functional;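 further: affinity for DCLK1 (listed as DCAMKL1) measured as one member of a kinome-wide kinase profiling panel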
[18] = biological target: Glycogen synthase kinase-3 beta (Homo sapiens, UniProt P49841); format: functional;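 further: value comes from a broad kinome profiling panel, with GSK3B as the panel member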
[19] = biological target: Macrophage colony-stimulating factor 1 receptor (Homo sapiens, UniProt P07333); format: functional;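 further: value comes from the Navigating the Kinome screening panel, CSF1R member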
[20] = biological target: Leukocyte tyrosine kinase receptor (Homo sapiens, UniProt P29376); experiment: Navigating the Kinome. Panel member name: LTK; format: functional
Caspase-9 = Caspase-9 (Homo sapiens, UniProt P55211); experiment: caspase-9 enzyme inhibition, dose response, selectivity assay for caspase-6 inhibitor project, biochemical, fluorescence, plate reader, cherry-picked samples (AID 743293)

Dual specificity protein kinase CLK2, sequence (P49760 whole entry): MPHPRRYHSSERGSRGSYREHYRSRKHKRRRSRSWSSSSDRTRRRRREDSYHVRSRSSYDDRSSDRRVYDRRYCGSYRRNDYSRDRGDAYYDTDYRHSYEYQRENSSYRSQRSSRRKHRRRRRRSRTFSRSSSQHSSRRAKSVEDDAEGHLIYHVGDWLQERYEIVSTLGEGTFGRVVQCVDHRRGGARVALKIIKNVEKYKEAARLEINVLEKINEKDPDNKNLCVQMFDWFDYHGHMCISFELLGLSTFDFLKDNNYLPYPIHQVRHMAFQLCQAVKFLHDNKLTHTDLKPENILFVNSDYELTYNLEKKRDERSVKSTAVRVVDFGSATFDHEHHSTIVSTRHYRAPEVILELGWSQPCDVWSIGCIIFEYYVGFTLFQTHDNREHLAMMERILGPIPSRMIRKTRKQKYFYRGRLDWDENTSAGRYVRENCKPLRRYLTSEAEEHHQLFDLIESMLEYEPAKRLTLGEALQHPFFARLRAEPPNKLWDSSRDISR
Leukocyte tyrosine kinase receptor, sequence (P29376 whole entry): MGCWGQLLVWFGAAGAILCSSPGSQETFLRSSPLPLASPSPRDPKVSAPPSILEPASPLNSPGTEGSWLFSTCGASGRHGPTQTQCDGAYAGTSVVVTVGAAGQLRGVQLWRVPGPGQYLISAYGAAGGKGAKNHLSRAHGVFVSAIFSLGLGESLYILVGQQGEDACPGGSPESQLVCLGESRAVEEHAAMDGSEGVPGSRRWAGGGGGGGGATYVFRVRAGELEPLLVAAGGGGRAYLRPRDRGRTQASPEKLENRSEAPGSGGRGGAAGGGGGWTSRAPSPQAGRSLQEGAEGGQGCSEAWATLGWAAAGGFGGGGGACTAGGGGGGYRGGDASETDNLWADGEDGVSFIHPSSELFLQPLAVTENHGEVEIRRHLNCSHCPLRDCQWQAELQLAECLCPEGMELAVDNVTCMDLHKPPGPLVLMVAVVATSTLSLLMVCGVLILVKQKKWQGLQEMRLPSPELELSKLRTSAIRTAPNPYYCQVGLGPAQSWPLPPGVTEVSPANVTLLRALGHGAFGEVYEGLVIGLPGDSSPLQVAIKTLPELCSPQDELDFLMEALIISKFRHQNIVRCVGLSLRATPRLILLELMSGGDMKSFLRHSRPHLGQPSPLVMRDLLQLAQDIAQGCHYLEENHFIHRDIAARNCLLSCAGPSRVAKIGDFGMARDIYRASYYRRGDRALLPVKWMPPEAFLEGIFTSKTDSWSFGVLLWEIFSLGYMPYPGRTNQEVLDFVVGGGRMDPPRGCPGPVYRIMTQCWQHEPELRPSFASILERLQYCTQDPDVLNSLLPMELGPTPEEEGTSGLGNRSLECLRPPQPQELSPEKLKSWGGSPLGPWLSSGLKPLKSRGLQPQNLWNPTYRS
Protein kinase C theta type, sequence (Q04759 whole entry): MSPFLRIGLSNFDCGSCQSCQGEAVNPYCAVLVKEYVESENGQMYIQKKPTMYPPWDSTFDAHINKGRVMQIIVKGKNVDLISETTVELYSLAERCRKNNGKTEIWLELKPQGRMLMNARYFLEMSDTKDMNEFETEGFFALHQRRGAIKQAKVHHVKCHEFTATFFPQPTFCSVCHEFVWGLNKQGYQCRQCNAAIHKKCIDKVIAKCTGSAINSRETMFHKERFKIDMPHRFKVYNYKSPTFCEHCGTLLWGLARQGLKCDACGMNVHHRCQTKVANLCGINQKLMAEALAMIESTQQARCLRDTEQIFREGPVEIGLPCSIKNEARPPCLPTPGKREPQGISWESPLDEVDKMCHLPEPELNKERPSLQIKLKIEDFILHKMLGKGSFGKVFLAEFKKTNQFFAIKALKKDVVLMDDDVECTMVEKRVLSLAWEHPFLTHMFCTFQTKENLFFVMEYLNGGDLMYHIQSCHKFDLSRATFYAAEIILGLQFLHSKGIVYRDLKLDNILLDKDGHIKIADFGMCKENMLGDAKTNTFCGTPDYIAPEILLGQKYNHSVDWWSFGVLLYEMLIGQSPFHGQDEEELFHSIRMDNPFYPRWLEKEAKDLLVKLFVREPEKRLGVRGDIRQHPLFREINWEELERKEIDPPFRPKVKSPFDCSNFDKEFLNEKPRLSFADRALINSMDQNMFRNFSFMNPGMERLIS
Serine/threonine-protein kinase PAK 4, sequence (O96013 whole entry): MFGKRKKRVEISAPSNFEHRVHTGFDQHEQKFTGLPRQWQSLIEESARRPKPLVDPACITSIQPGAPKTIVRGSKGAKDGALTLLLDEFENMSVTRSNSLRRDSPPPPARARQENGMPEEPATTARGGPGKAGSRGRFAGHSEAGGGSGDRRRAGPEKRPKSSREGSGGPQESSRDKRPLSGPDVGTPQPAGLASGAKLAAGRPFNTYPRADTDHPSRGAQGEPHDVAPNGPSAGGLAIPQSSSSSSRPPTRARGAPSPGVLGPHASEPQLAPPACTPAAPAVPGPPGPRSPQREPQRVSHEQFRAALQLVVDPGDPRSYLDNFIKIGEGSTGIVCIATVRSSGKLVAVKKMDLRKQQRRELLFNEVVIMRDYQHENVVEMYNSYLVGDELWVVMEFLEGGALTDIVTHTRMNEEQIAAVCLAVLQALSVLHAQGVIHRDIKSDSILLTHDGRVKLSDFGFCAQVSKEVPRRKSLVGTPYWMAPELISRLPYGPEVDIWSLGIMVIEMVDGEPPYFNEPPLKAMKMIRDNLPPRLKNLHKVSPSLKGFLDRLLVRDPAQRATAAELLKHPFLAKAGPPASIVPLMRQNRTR
Dual specificity tyrosine-phosphorylation-regulated kinase 1B, sequence (Q9Y463 whole entry): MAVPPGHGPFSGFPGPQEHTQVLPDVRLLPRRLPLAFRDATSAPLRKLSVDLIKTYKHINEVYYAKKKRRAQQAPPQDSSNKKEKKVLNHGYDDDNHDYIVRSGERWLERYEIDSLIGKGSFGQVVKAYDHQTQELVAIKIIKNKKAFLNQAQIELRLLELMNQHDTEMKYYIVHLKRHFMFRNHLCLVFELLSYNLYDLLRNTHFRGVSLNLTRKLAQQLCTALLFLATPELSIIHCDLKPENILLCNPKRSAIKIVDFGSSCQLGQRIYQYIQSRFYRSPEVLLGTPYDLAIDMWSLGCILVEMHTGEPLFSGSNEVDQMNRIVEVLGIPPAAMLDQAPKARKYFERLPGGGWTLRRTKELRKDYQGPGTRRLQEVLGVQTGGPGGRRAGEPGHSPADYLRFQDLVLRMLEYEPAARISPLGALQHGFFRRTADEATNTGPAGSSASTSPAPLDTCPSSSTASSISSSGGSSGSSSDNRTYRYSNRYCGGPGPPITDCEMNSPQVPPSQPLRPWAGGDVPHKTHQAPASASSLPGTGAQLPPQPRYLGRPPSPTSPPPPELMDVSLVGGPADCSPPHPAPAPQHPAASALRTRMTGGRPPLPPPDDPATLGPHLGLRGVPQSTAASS
Glycogen synthase kinase-3 alpha, sequence (P49840 whole entry): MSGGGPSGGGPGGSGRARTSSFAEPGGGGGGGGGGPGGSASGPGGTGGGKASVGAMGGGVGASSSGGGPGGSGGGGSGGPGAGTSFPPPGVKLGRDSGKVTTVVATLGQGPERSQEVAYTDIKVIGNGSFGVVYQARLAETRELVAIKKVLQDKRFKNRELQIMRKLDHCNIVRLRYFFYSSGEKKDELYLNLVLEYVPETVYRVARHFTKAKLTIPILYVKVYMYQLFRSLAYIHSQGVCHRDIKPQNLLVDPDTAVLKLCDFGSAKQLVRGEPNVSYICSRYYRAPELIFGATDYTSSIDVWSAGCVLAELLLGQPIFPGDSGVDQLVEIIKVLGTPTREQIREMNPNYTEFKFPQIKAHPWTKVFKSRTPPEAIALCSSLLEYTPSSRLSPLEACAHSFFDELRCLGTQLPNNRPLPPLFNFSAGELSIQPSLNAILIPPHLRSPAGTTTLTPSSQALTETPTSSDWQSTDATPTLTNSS
Tyrosine-protein kinase JAK2, sequence (O60674 whole entry): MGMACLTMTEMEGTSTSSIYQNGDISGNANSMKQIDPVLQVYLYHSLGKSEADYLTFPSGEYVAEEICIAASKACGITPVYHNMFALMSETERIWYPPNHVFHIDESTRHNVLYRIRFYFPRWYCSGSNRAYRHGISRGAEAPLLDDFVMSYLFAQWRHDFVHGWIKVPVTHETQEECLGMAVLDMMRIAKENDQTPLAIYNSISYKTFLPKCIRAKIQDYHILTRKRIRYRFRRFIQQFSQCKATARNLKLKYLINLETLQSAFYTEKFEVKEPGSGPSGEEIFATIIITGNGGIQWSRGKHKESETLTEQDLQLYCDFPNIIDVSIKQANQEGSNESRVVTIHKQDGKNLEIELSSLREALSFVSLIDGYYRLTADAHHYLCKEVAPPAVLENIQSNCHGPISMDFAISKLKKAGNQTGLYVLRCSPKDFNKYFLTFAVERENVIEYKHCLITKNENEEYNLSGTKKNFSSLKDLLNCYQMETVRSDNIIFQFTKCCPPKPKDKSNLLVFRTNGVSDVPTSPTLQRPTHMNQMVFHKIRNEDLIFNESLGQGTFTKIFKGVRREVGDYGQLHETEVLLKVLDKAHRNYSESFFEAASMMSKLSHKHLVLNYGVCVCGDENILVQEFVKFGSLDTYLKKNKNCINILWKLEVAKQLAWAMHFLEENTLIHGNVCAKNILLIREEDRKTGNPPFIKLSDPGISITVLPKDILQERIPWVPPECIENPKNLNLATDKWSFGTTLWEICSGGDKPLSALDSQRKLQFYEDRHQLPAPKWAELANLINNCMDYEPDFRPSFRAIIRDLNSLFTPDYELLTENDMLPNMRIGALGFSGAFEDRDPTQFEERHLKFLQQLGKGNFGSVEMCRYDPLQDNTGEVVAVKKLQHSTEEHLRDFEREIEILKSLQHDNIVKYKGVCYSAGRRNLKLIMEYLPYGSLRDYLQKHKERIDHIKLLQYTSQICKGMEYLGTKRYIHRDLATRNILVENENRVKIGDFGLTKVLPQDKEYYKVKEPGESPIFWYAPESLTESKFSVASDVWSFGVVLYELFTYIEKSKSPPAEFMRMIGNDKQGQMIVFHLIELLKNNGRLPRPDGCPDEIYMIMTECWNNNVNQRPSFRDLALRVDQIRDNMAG

CCN(CC)CCCC(C)n1c2nc(=O)[nH]c(=O)c-2nc2cc(Cl)ccc21 (configuration not stated)
active: AC50 (HeLa) 8490 nM | AC50 (Caspase-6) 305 nM

OC1CCC(Nc2nc(Cl)cc(-c3c[nH]c4ncccc34)n2)CC1 (configuration not stated)
8.3: pKi [11] | pKi [15]
6.3: pKi [16]
8.6: pKi [13]
7.8: pKi [1]
7.2: pKi [10] | pKi [14]
7.3: pKi [18]
7.6: pKi [7]
inactive: Ki [2] > 2000 nM | Ki [5] > 1260 nM | Ki [6] > 1260 nM | Ki [17] > 10000 nM
6.7: pKi [4] | pKi [19]
8.1: pKi [3]
active: Ki [1] 15.8 nM | Ki [3] 7.94 nM | Ki [4] 200 nM | Ki [7] 25.1 nM | Ki [8] 398 nM | Ki [9] 1000 nM | Ki [10] 63.1 nM | Ki [11] 5.01 nM | Ki [12] 398 nM | Ki [13] 2.51 nM | Ki [14] 63.1 nM | Ki [15] 5.01 nM | Ki [16] 501 nM | Ki [18] 50.1 nM | Ki [19] 200 nM | Ki [20] 251 nM
6.4: pKi [8] | pKi [12]
6.6: pKi [20]

O=C(COC(=O)c1ccc([N+](=O)[O-])s1)Nc1ccc(F)cc1
active: AC50 (Caspase-6) 1960 nM | AC50 (Caspase-9) 27200 nM

COc1cccc(CNC(=O)c2cnc(-c3ccncc3)nc2)c1
inactive: Ki [3] > 3980 nM | Ki [4] > 2510 nM | Ki [5] > 6310 nM | Ki [6] > 6310 nM | Ki [7] > 5010 nM | Ki [10] > 3980 nM | Ki [12] > 3160 nM | Ki [13] > 2510 nM | Ki [18] > 3980 nM | Ki [19] > 2510 nM | Ki [20] > 2510 nM
active: Ki [1] 1000 nM | Ki [14] 2000 nM
